The NIST ThermoML archive (doi:10.1021/je060411g)
Where “and” joins values, the source holds several entries; their conditions need not be identical. Identical values can stand only once.

Experiment: molar heat capacity at constant pressure
Conditions: 101.33 kPa

CCC(O)CC [3-pentanol]
Conditions | molar heat capacity at constant pressure
5.43 K, Crystal | 0.93 J/K/mol
5.48 K, Crystal | 0.88 J/K/mol
6.3 K, Crystal | 1.18 J/K/mol
6.63 K, Crystal | 1.23 J/K/mol
7.14 K, Crystal | 1.52 J/K/mol
7.71 K, Crystal | 1.85 J/K/mol
7.86 K, Crystal | 1.91 J/K/mol
8.49 K, Crystal | 2.31 J/K/mol
8.59 K, Crystal | 2.43 J/K/mol
9.16 K, Crystal | 2.77 J/K/mol
9.61 K, Crystal | 3.11 J/K/mol
9.92 K, Crystal | 3.43 J/K/mol
10 K, Crystal | 3.5 J/K/mol
10.7 K, Crystal | 4.04 J/K/mol
10.73 K, Crystal | 4.07 J/K/mol
11.58 K, Crystal | 4.8 J/K/mol
11.84 K, Crystal | 5.04 J/K/mol
12.49 K, Crystal | 5.7 J/K/mol
13.05 K, Crystal | 6.15 J/K/mol
13.45 K, Crystal | 6.53 J/K/mol
14.32 K, Crystal | 7.35 J/K/mol
14.43 K, Crystal | 7.58 J/K/mol
15 K, Crystal | 8.21 J/K/mol
15.45 K, Crystal | 8.54 J/K/mol
15.63 K, Crystal | 8.59 J/K/mol
16.51 K, Crystal | 9.66 J/K/mol
16.98 K, Crystal | 10.07 J/K/mol
17.58 K, Crystal | 10.69 J/K/mol
18.36 K, Crystal | 11.47 J/K/mol
18.67 K, Crystal | 11.8 J/K/mol
19.77 K, Crystal | 13.01 J/K/mol and 12.97 J/K/mol
20 K, Crystal | 13.21 J/K/mol
20.89 K, Crystal | 14.13 J/K/mol
21.2 K, Crystal | 14.45 J/K/mol
22.02 K, Crystal | 15.43 J/K/mol
22.64 K, Crystal | 16.12 J/K/mol
23.16 K, Crystal | 16.63 J/K/mol
24.11 K, Crystal | 17.73 J/K/mol
24.31 K, Crystal | 18.04 J/K/mol
25 K, Crystal | 18.82 J/K/mol
25.43 K, Crystal | 19.3 J/K/mol
25.59 K, Crystal | 19.51 J/K/mol
26.27 K, Crystal | 19.88 J/K/mol
26.44 K, Crystal | 21 J/K/mol
26.46 K, Crystal | 20.69 J/K/mol
27.41 K, Crystal | 20.88 J/K/mol
27.44 K, Crystal | 20.97 J/K/mol
28.31 K, Crystal | 21.71 J/K/mol
29.2 K, Crystal | 22.65 J/K/mol
30 K, Crystal | 23.56 J/K/mol
30.84 K, Crystal | 24.51 J/K/mol
32.44 K, Crystal | 26.27 J/K/mol
34.05 K, Crystal | 27.98 J/K/mol
35 K, Crystal | 28.96 J/K/mol
35.7 K, Crystal | 29.65 J/K/mol
37.37 K, Crystal | 30.89 J/K/mol
39.08 K, Crystal | 32.33 J/K/mol
40 K, Crystal | 33.19 J/K/mol
40.8 K, Crystal | 33.94 J/K/mol
42.52 K, Crystal | 35.56 J/K/mol
44.25 K, Crystal | 37.13 J/K/mol
45 K, Crystal | 37.81 J/K/mol
46 K, Crystal | 38.7 J/K/mol
47.76 K, Crystal | 40.3 J/K/mol
49.53 K, Crystal | 41.89 J/K/mol
50 K, Crystal | 42.29 J/K/mol
51.31 K, Crystal | 43.33 J/K/mol
53.11 K, Crystal | 44.7 J/K/mol
54.91 K, Crystal | 46.08 J/K/mol
55 K, Crystal | 46.14 J/K/mol
56.73 K, Crystal | 47.47 J/K/mol
58.56 K, Crystal | 48.81 J/K/mol
60 K, Crystal | 49.88 J/K/mol
60.4 K, Crystal | 50.18 J/K/mol
62.25 K, Crystal | 51.52 J/K/mol
64.1 K, Crystal | 52.82 J/K/mol
65 K, Crystal | 53.44 J/K/mol
65.97 K, Crystal | 54.11 J/K/mol
67.84 K, Crystal | 55.41 J/K/mol
69.72 K, Crystal | 56.67 J/K/mol
70 K, Crystal | 56.86 J/K/mol
71.6 K, Crystal | 57.95 J/K/mol
73.49 K, Crystal | 59.18 J/K/mol
75 K, Crystal | 60.13 J/K/mol
75.38 K, Crystal | 60.37 J/K/mol
77.28 K, Crystal | 61.55 J/K/mol
79.19 K, Crystal | 62.78 J/K/mol
80 K, Crystal | 63.27 J/K/mol
81.1 K, Crystal | 63.93 J/K/mol
83.01 K, Crystal | 65.07 J/K/mol
84.93 K, Crystal | 66.32 J/K/mol
85 K, Crystal | 66.36 J/K/mol
86.86 K, Crystal | 67.47 J/K/mol
88.78 K, Crystal | 68.55 J/K/mol
90 K, Crystal | 69.21 J/K/mol
90.7 K, Crystal | 69.61 J/K/mol
92.62 K, Crystal | 70.75 J/K/mol
94.54 K, Crystal | 71.9 J/K/mol
95 K, Crystal | 72.17 J/K/mol
96.47 K, Crystal | 72.98 J/K/mol
98.4 K, Crystal | 74.27 J/K/mol
98.9 K, Glass | 77.69 J/K/mol
99.63 K, Glass | 77.09 J/K/mol
100 K, Crystal | 76.23 J/K/mol
100.34 K, Crystal | 75.65 J/K/mol
100.42 K, Crystal | 75.69 J/K/mol
100.73 K, Crystal | 75.56 J/K/mol
101.47 K, Glass | 78.26 J/K/mol
101.88 K, Crystal | 76.15 J/K/mol
103.84 K, Crystal | 77.02 J/K/mol
104.37 K, Glass | 79.98 J/K/mol
105 K, Crystal | 79.46 J/K/mol
105.79 K, Crystal | 78.1 J/K/mol
107.23 K, Glass | 82.34 J/K/mol
107.74 K, Crystal | 79.42 J/K/mol
109.68 K, Crystal | 80.42 J/K/mol
110 K, Crystal | 83.89 J/K/mol
110.1 K, Glass | 84.56 J/K/mol
111.63 K, Crystal | 81.37 J/K/mol
112.97 K, Glass | 86.83 J/K/mol
113.58 K, Crystal | 82.36 J/K/mol
115.54 K, Crystal | 83.34 J/K/mol
115.84 K, Glass | 89.3 J/K/mol
117.49 K, Crystal | 84.31 J/K/mol
118.71 K, Glass | 92.11 J/K/mol
119.44 K, Crystal | 85.07 J/K/mol
120 K, Crystal | 82.36 J/K/mol
121.39 K, Crystal | 86.04 J/K/mol
121.59 K, Glass | 95.01 J/K/mol
123.34 K, Crystal | 87.47 J/K/mol
124.46 K, Glass | 99.21 J/K/mol
125.29 K, Crystal | 88.5 J/K/mol
127.24 K, Crystal | 89.59 J/K/mol
127.34 K, Glass | 104.26 J/K/mol
129.2 K, Crystal | 90.65 J/K/mol
131.15 K, Crystal | 91.7 J/K/mol
133.11 K, Crystal | 92.81 J/K/mol
135.06 K, Crystal | 93.83 J/K/mol
135.56 K, Liquid | 147.41 J/K/mol
137.01 K, Crystal | 94.96 J/K/mol
138.31 K, Liquid | 149.27 J/K/mol
138.96 K, Crystal | 95.99 J/K/mol
140.92 K, Crystal | 97.1 J/K/mol
141.2 K, Liquid | 149.61 J/K/mol
142.87 K, Crystal | 98.24 J/K/mol
144.14 K, Liquid | 149.91 J/K/mol
144.82 K, Crystal | 99.32 J/K/mol
146.77 K, Crystal | 100.55 J/K/mol
147.09 K, Liquid | 150.15 J/K/mol
148.72 K, Crystal | 101.76 J/K/mol
150.04 K, Liquid | 150.36 J/K/mol
150.67 K, Crystal | 103.08 J/K/mol
152.61 K, Crystal | 104.4 J/K/mol
